Assay results reported in patent US8512748B2, “Controlled release system and method for manufacturing the same” (Boehringer Ingelheim International GmbH, priority 2006, dated 2013).

Experiment: pH-dependent aqueous solubility of the active ingredient
Type: physicochemical

- solubility (pH 2): good solubility
- aqueous solubility (pH values 5.5-6.8): poor
Compound: O=c1[nH]c2ccccc2n1CCN1CCN(c2cccc(C(F)(F)F)c2)CC1 [active ingredient, 1-[2-(4-(3-trifluoromethyl-phenyl)piperazin-1-yl)ethyl]-2,3-dihydro-1H-benzimidazol-2-one]
